Data from PubChem BioAssay (NCI).
“And” between values parts separate entries of the source, which are not always exact repeats. Equal entries are not always repeated.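 Compound exposure: 48 hours, 5 concentrations, 96-well plates. Here, GI50 denotes the concentration required for 50% inhibition of growth. TGI: total growth inhibition.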

Assays:
Assay in all cases: growth of human tumour cells (NCI), 48 h
[1] = system: SF-539 CNS
[2] = system: SR leukemia
[3] = system: A549 NSCLC
[4] = system: MALME-3M melanoma
[5] = system: MDA-MB-231 breast
[6] = system: HCT-116 colon
[7] = system: SNB-75 CNS
[8] = system: SW-620 colon
[9] = system: NCI-H522 lung
[10] = system: UO-31 renal

Row | Compound | TGI [1] | TGI [2] [µM] | TGI [3] | TGI [4] | TGI [5] [µM] | TGI [6] | TGI [7] | TGI [8] | TGI [9] | TGI [10] | GI50 [1] | GI50 [3] | GI50 [6] | GI50 [7] | GI50 [8] | GI50 [9] | GI50 [10]
1 | O=C(CCCN1CCc2[nH]c3cc(F)ccc3c2C1)c1ccc(F)cc1 | 30.5 µM | 26.1 | 29.5 µM | 26 µM | 25.5 | 24.2 µM | 22.9 µM | > 100 µM | 35.6 µM |  |  |  |  |  |  |  | 
2 | Cc1cccc(N2CCN(S(=O)(=O)c3ccc(Cl)cc3)C2=N)c1C | > 100 µM | > 100 | > 100 µM |  | > 100 | > 100 µM | > 100 µM | > 100 µM |  | > 100 µM |  |  |  |  |  |  | 
3 | CC(=O)Nc1ccc(C(=O)N2N=C(C)/C(=C/c3cccc(O)c3)C2=O)cc1 | > 100 µM |  | > 100 µM | > 100 µM |  | > 100 µM | > 100 µM | > 100 µM | > 100 µM | > 100 µM |  |  |  |  |  |  | 
4 | CNC(=O)OCC1=C(COC(=O)NC)CN(c2ccccc2)C1 | > 100 µM | > 100 | > 100 µM | > 100 µM | > 100 | > 100 µM | > 100 µM | > 100 µM |  | > 100 µM |  |  |  |  |  |  | 
5 | C=C1C(=O)O[C@H]2C(=O)[C@H](C)CCC[C@@](C)(O)/C=C\C[C@@]3(C)O[C@@H]3C[C@@H]12 | 36.9 µM |  | 38.6 µM |  | 43.6 | 20.2 µM |  | 22.1 µM | 9.08 µM | 27.6 µM |  |  |  |  |  |  | 
6 | Cn1c(=O)c2[nH]c(N/N=C3/SCC(=O)N3Cc3ccccc3)nc2n(C)c1=O | > 100 µM | 82.3 | > 100 µM | > 100 µM | > 100 | > 100 µM |  |  | > 100 µM | > 100 µM |  |  |  |  |  |  | 
7 | CCOP(=O)(OCC)C(F)(F)CC1CCCCC1 | > 10 µM | > 10 | > 10 µM | > 10 µM | > 10 | > 10 µM | > 10 µM | > 10 µM |  | > 10 µM |  |  |  |  |  |  | 
8 | COc1ccccc1OC/C(N=Cc1ccncc1)=N/NC(=O)c1ccncc1 | > 100 µM |  | > 100 µM | > 100 µM | > 100 | > 100 µM |  | > 100 µM | > 100 µM |  |  |  |  |  |  |  | 
9 | COc1cc(/C=C2\C[C@H]3[C@@H]4CC=C5C[C@@H](N6CCCC6)CC[C@]5(C)[C@H]4CC[C@]3(C)[C@H]2OC(C)=O)cc(OC)c1OC |  |  | 32 µM | 38.1 µM | 29.8 | 30.5 µM | 29.4 µM | 34.7 µM | 30.4 µM | 30 µM |  |  |  |  |  |  | 
10 | Cc1ccc(Nc2nnc3n2S(=O)(=O)c2cc(C)c(Cl)cc2S3)cc1 | 14.7 µM | 7.85 | 61.6 µM |  | 82.4 | 67.2 µM | 73.4 µM | > 100 µM | 5.66 µM | 81.3 µM |  |  |  |  |  |  | 
11 | OCc1ccccc1OC1OC(CO)C(O)C(O)C1O (stereo unspecified) | > 100 µM |  | > 100 µM | > 100 µM | > 100 | > 100 µM | > 100 µM | > 100 µM | > 100 µM | > 100 µM |  |  |  |  |  |  | 
12 | CC(=O)c1c(O)c(C)c(O)c2c1OC1=CC(=O)C(C(C)=O)C(=O)C12C (stereo unspecified) | 18.4 µM and 23.5 µM |  | 25.1 µM and 48.4 µM | 28.8 µM and 42.6 µM |  | 45.7 µM and 66.3 µM | 21.2 µM and 49 µM | 41.3 µM and 86 µM | 15.2 µM and 56.6 µM | 7.08 µM and 53.6 µM | 5.09 µM and 16.3 µM | 3.77 µM and 13.8 µM | 10.9 µM and 22.3 µM | 5.97 µM and 22.5 µM | 6.44 µM and 27.5 µM | 4.15 µM and 19.3 µM | 1.96 µM and 18.2 µM
